Test results as given in PMC10164177, “The difference in the cellular uptake of tocopherol and tocotrienol is influenced by their affinities to albumin” (Scientific Reports, 2023).

Key:
Jurkat cells = test system: Jurkat cells; design: method as in PMID 15753172; conditions: 1 μM α-Toc or α-T3, 24 hours; cited from earlier work
THP-1 monocytes [1] = assay: Cellular uptake in THP-1 monocytes at low temperature (4 °C); assay type: cell-based, human; conditions: 20.0 μM, 2 h; for effect of BSA addition on cellular uptake at low temperature: serum-depleted medium with 0–200.0 μM BSA
Protocol: THP-1 monocytes preincubated in 10% FBS/RPMI medium were collected. The collected cells (2.5 × 10^6) were suspended in 1.0 mL of 10% PBS/RPMI medium containing 0, 0.2, 2.0, 20.0, 32.4, and 200.0 μM BSA on ice. This suspension was immediately mixed with 4.0 mL of 10% PBS/RPMI medium containing BSA and vitamin E. The final composition was 5.0 mL of 10% PBS/RPMI medium containing 0, 0.2, 2.0, 20.0, 32.4, or 200.0 μM BSA, and 20.0 μM α-Toc or α-T3. Cells were incubated at 4 °C with slow rotation in a tube rotator. After 2 h incubation, the cell lysate was prepared as above, and vitamin E and protein levels were measured.
Vitamin E was extracted from the cell lysates according to the procedure described in our previous study. Tocol (Tama Biochemical, Tokyo, Japan) was used as an internal standard. The extract was analyzed by liquid chromatography-tandem mass spectrometry (LC–MS/MS). The LC–MS/MS system consisted of an ExionLC system and a 4000QTRAP mass spectrometer (SCIEX, Tokyo, Japan). An Inersil SIL-100A-5 column (4.6 mm × 250 mm; GL Science, Tokyo, Japan) was eluted with a mobile phase consisting of hexane/1,4-dioxane/2-propanol (100:4:0.5, v/v/v). The flow rate was 1.0 mL/min, and the column temperature was 40 °C. Vitamin E was detected in the multiple reaction monitoring (MRM) mode (Table 1) under atmospheric pressure chemical ionization. The ion source parameters were as follows: curtain gas, 45.0 psi; collision gas, 8.0 psi; nebulizer current, − 3.0 μA; temperature, 350.0 °C; ion source gas 1, 60.0 psi; interface heater, ON.

BSA = molecular target: T1, BSA (Bos taurus, UniProt P02769); assay: Fluorescence quenching binding parameters between vitamin E and BSA; design: species or system bovine; conditions: 2.0 μM BSA, room temperature, mean ± S.E. (n = 3); for Stern–Volmer constant (Ksv) / Kd: excitation 280 nm, emission 340 nm; for Kd: read-out: apparent binding constant (Ka) (converted)
T1 construct: Bovine serum albumin (BSA; Fatty Acid/IgG/Protease-Free); purchased FUJIFILM Wako Pure Chemical Corporation, Ltd. (Osaka, Japan)
T1 sequence (P02769 25-607): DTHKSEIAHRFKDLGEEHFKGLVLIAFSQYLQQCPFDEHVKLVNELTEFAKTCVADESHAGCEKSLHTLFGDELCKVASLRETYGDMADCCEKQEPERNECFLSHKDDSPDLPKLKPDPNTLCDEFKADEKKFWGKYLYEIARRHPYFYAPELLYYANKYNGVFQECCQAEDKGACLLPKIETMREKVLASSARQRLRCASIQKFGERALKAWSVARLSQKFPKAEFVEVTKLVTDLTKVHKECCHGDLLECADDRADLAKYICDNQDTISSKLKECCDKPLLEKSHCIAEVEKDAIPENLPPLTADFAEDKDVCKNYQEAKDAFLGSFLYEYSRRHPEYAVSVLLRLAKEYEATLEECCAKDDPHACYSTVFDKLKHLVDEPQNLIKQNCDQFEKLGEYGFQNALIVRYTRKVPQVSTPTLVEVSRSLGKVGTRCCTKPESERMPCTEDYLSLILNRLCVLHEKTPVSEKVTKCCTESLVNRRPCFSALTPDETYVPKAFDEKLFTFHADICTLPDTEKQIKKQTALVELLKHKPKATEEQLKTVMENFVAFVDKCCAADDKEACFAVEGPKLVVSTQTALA
Protocol: The binding parameters of each Toc or T3 analog to BSA were measured with slight modifications to a previously described procedure[32],[34]. Each Toc or T3 analog was dissolved in DMSO at 10 mM, and added to a quartz cell containing 3.0 mL of 2.0 μM BSA stock solution to achieve a final concentration of 1.0–225.0 μM. […] Fluorescence spectra were recorded at room temperature using FP-6200 (JASCO, Tokyo, Japan) at an excitation wavelength of 280 nm and emission wavelengths from 300 to 500 nm. The intensity at 340 nm was used to calculate the Stern–Volmer constant (Ksv) by the following equation[39]: F0/F = 1 + Ksv[VE]. We also calculated the apparent binding constant (Ka) and the number of binding sites (n) by the following equation[40]: log((F0 − F)/F) = nlogKa − nlog(1/([VE] − [BSA](F0 − F)/F0)). Abbreviations in the above equations refer to follows: F0, initial fluorescence intensity; F, fluorescence intensity in the presence of each Toc or T3 analog; [VE], molar concentration of each Toc or T3 analog; [BSA], original BSA concentration. The same measurements were performed using a buffer solution without BSA, and the F values were calculated using the measured fluorescence intensity as a blank.

THP-1 monocytes [2] = assay: Cellular uptake of vitamin E in THP-1 monocytes (37 °C, LC–MS/MS); assay type: cell-based, human; conditions: 20.0 μM analog, serum-depleted medium with 0–200.0 μM BSA, 2 h
Protocol: THP-1 monocytes (2.5 × 10^6 cells) were preincubated in 5.0 mL of 10% FBS/RPMI medium. The cells (2.5 × 10^6 cells) were also preincubated in 5.0 mL of FBS-free 10% PBS/RPMI medium in the absence or presence of 0.2, 2.0, 20.0, 32.4, and 200.0 μM BSA (each medium was prepared by dissolving the 2.0 mM BSA stock solution in 10% PBS/RPMI medium). After 24 h of these preincubations, 5.0 μL of each vitamin E stock solution was added to 10% FBS/RPMI medium or 10% PBS/RPMI medium at a final concentration of 20.0 μM and further incubated for 2 h. […] The incubated cells were collected by centrifugation and washed with PBS. The cells were resuspended in 0.6 mL water and homogenized on ice. A part of the lysate (0.5 mL) was used to analyze vitamin E (described below), and the remaining 0.1 mL was used to quantify protein by the BCA Protein Assay (Thermo Fisher Scientific).
Vitamin E was extracted from the cell lysates according to the procedure described in our previous study. Tocol (Tama Biochemical, Tokyo, Japan) was used as an internal standard. The extract was analyzed by liquid chromatography-tandem mass spectrometry (LC–MS/MS). The LC–MS/MS system consisted of an ExionLC system and a 4000QTRAP mass spectrometer (SCIEX, Tokyo, Japan). […] Vitamin E was detected in the multiple reaction monitoring (MRM) mode (Table 1) under atmospheric pressure chemical ionization. […]

LNCaP cells = test system: LNCaP cells; design: method as in PMID 21400505; conditions: 50 μM γ-Toc or 10 μM γ-T3, 6 hours; cited from earlier work
PC-3 cells = test system: PC-3 cells; design: method as in PMID 21400505; conditions: 50 μM γ-Toc or 10 μM γ-T3, 6 hours; cited from earlier work
THP-1 monocytes [3] = assay: Cellular uptake in THP-1 monocytes with ATP synthesis inhibitors; assay type: cell-based, human; conditions: 10.0 μM vitamin E, 10.0 μM BSA, 1 mM DNP or 10 mM NaN3 + 5 mM 2DG, 1 h, 37 °C, vs control
Protocol: To further investigate cellular uptake mechanism, cell culture study was conducted using two ATP synthesis inhibitors as follows: (1) 1 mM 2,4-dinitrophenol or (2) a mixture of 10 mM sodium azide and 5 mM 2-deoxy-D-glucose[45]. THP-1 monocytes (2.5 × 10^6) preincubated in 10% FBS/RPMI medium were collected, suspended in 1.0 mL of PBS(+)[45] containing each inhibitor, and preincubated for 10 min at 37 °C under slow rotation in a tube rotator. […] Control samples were similarly prepared without the addition of inhibitors and incubated for 1 h. Vitamin E and protein levels were measured as described above.
Figure S1 The effect of two ATP synthesis inhibitors (1 mM 2,4-dinitrophenol (DNP) or a mixture of 10 mM sodium azide and 5 mM 2-deoxy-D-glucose (NaN3+2DG)) on the […]
Cells were incubated in PBS(+) […]
hour. Control samples were similarly incubated without the addition of inhibitors. […]
the main article. Values are expressed as mean ± SE of three independent experiments.
The statical significance of the results was analyzed using Dunnett's test, where p < 0.05 was considered statistically significant . […]
and samples treated with ATP synthesis inhibitor.
(1 picture or pasted object on this page, not shown here)

Compound | cellular uptake relative to α-Toc (Jurkat cells) [fold] | cellular concentration compared with α-Toc at low temperature (THP-1 monocytes [1]; BSA-containing medium) | effect of BSA addition on cellular uptake at low temperature (THP-1 monocytes [1]) | Stern–Volmer constant (Ksv) (BSA) | Kd (BSA) [µM] | number of binding site (n) (BSA) | effect of BSA addition on cellular concentration (THP-1 monocytes [2]) | cellular uptake compared with γ-Toc (LNCaP cells) | cellular uptake compared with γ-Toc (PC-3 cells) | effect of ATP synthesis inhibitors on cellular uptake (THP-1 monocytes [3])
CC(C)=CCC/C(C)=C/CC/C(C)=C/CC[C@]1(C)CCc2c(C)c(O)c(C)c(C)c2O1 [α-T3] | 6.5 | slightly higher than that of α-Toc | did not observe the BSA-induced increase | 1.19 ± 0.07 × 10^4 M^−1 | 69.4 | 0.70 ± 0.04 |  |  |  | 
Cc1c(C)c2c(c(C)c1O)CC[C@@](C)(CCC[C@H](C)CCC[C@H](C)CCCC(C)C)O2 [α-Toc] |  |  | reduced upon the addition of BSA | 0.93 ± 0.06 × 10^4 M^−1 | 99 | 0.69 ± 0.02 | particularly pronounced |  |  | 
CC(C)=CCC/C(C)=C/CC/C(C)=C/CC[C@]1(C)CCc2c(C)c(O)cc(C)c2O1 [β-T3] |  |  |  | 1.39 ± 0.13 × 10^4 M^−1 | 59.5 | 0.76 ± 0.00 |  |  |  | 
Cc1cc(O)c(C)c2c1O[C@](C)(CCC[C@H](C)CCC[C@H](C)CCCC(C)C)CC2 [β-Toc] |  |  |  | 1.00 ± 0.02 × 10^4 M^−1 | 95.2 | 0.69 ± 0.01 |  |  |  | 
CC(C)=CCC/C(C)=C/CC/C(C)=C/CC[C@]1(C)CCc2cc(O)c(C)c(C)c2O1 [γ-T3] |  |  |  | 1.35 ± 0.01 × 10^4 M^−1 | 62.1 | 0.74 ± 0.02 |  | higher cellular uptake than γ-Toc | higher cellular uptake than γ-Toc | 
Cc1c(O)cc2c(c1C)O[C@](C)(CCC[C@H](C)CCC[C@H](C)CCCC(C)C)CC2 [γ-Toc] |  |  |  | 0.82 ± 0.01 × 10^4 M^−1 | 115 | 0.71 ± 0.02 |  |  |  | 
CC(C)=CCC/C(C)=C/CC/C(C)=C/CC[C@]1(C)CCc2cc(O)cc(C)c2O1 [δ-T3] |  |  |  | 1.51 ± 0.02 × 10^4 M^−1 | 55.2 | 0.78 ± 0.01 | increase the most |  |  | No significance
Cc1cc(O)cc2c1O[C@](C)(CCC[C@H](C)CCC[C@H](C)CCCC(C)C)CC2 [δ-Toc] |  |  |  | 0.89 ± 0.04 × 10^4 M^−1 | 105 | 0.71 ± 0.01 |  |  |  | No significance
